From a melting point compilation (Tetko et al.; mined from patent text by program, amines drawn as free bases though some values may be those of a salt)

Row | SMILES | melting point [°C]
1 | CS(=O)(=O)c1ccc(NCCc2[nH]c3c(cnc4cc(Cl)ccc43)c2C=NNc2ccccc2)cc1 | 185 to 186
2 | COC(=O)c1sc(OC)c(Cl)c1O | 109 to 111
3 | COc1ccccc1-c1cc2cnc(N)nc2nc1NC(=O)NC(C)(C)C | 300 to 301
4 | CC(C)(C)NC(=O)N(Cc1ccccc1)CC(O)C(Cc1ccccc1)NC(=O)C(CC(N)=O)NC(=O)NCc1ccccc1 (stereo unspecified) | 156 to 158
5 | COc1ccc(Cl)c(S(=O)(=O)NC(=O)c2cn3cc(C(F)(F)F)ncc3n2)c1 | 236 to 237
6 | Cc1ccc(S(=O)(=O)CCCc2c[nH]c([N+](=O)[O-])n2)cc1 | 108 to 111
7 | COc1ccc2cc(C(=O)C34CC5CC(CC(C5)C3)C4)oc2c1 | 99 to 101
8 | COc1ccc2c(c1)C(NCCCCc1ncc(Br)cc1C)=NS2(=O)=O | 161 to 162
9 | OCCCCCCCCCCCC(F)(F)C(F)(F)F | 41 to 43
10 | CN(OCc1ccccc1)S(=O)(=O)c1ccccc1S(N)(=O)=O | 122 to 128
11 | COC(=O)c1cc(C(C)(C)C#N)cc(C(C)(C)C#N)c1 | 83 to 85
12 | CC(CNc1nc(N)nc2c1ncn2C1OC(CO)C(O)C1O)(c1ccccc1)c1ccccc1 (stereo unspecified) | 129 to 132
13 | Cc1ccc(C2CC(n3ccnc3)c3ccccc3N2)cc1 (stereo unspecified) | 152 to 154
14 | CCCc1cc(C)c2oc(Cc3ccc(OC)cc3)c(C)c2c1O | 102 to 104
15 | CC(=O)OCc1nc2cc3c(cc2c(=O)n1COC(=O)C(C)(C)C)C(=O)CC3 | 144
16 | Cc1ccc(S(=O)(=O)N2CCN(C(=O)c3ccc(Nc4ccnc5cc(C(F)(F)F)ccc45)cc3)CC2)cc1 | 215 to 217
17 | O=C(Nc1cccc(C(F)(F)F)c1)c1coc2cc(Oc3cc(CO)ncn3)ccc12 | 181 to 182
18 | CCOC(=O)c1cc(OC)c(OCCOC)cc1[N+](=O)[O-] | 68 to 69
19 | O=c1[nH]c2ccc3c(c2o1)OC(CN1CC=C(c2c[nH]c4ccccc24)CC1)CO3 (stereo unspecified) | 202
20 | COc1ccc2nn(-c3cc(OCCCO)cc(C(C)(C)C)c3O)nc2c1 | 128 to 130
21 | CNC(=O)N(C)c1cc(C(C)(C)C)on1 | 150 to 151
22 | COC(=O)c1ccc(Cl)cc1NC(=O)CSc1ccc(NC(=O)Cc2ccccc2)cc1 | 144 to 146

Row | SMILES | melting point [°C]
23 | O=[N+]([O-])c1c(OCc2ccccc2)ccnc1F | 96 to 98
24 | O=[N+]([O-])c1cc(I)ccc1Nc1cccc(-c2cncnc2)c1 | 214 to 217
25 | COC(=O)C1COc2ccccc2C1 (stereo unspecified) | 83 to 84
26 | CN(Cc1sc2c(=O)c(C(=O)NCc3ccc(Cl)cc3)cn(C)c2c1CO)CC(O)c1ccc(C#N)s1 (stereo unspecified) | 188 to 190
27 | Cc1cc(-c2nc3cccnn3c2-c2ccnc(NC(=O)c3cccc4cccnc34)c2)ccc1F | 229 to 230
28 | O=C(O)c1ccc(OC23CC4CC(CC(C4)C2)C3)cc1 | 223 to 226
29 | COc1cc(C#N)ccc1C | 51 to 52.5
30 | COc1ccc(C)c(Nc2c(C#N)cnc3c2C=C2N=C(NCCN4CCOCC4)N=C2C3)c1 | 148 to 150
31 | CN(CCO)Cn1nc(-c2ccncc2)n(-c2ccccc2)c1=S | 173 to 174
32 | O=C1NC(=O)C2(CCOc3ccc(F)cc32)S1 (stereo unspecified) | 147 to 149
33 | COc1ccc(OC)c(CN[C@H]2[C@H]3CCN(C[C@@H]3C(N)=O)[C@H]2C(c2ccccc2)c2ccccc2)c1 (relative stereo) | 127 to 129
34 | COc1ccc2c(c1)N(C)C(=S)C2 | 135 to 136
35 | CC(C)(C(=O)O)c1ccc2cc(OCc3ccc4ccccc4n3)ccc2c1 | 207 to 209
36 | O=c1c(Br)c(Br)cnn1-c1cccc(C(F)(F)F)c1 | 158 to 175
37 | N#Cc1ccc2oc(CCCCc3cc4cc(C#N)ccc4o3)cc2c1 | 187 to 188
38 | CN(CCO)Cc1ccc(-c2ccc3c(Nc4ccc(Sc5nccn5C)c(Cl)c4)c(C#N)cnc3c2)nc1 | 197 to 199
39 | Cc1noc(NS(=O)(=O)c2ccsc2C(=O)c2ccc3c(c2)OCO3)c1Br | 47 to 49
40 | Cc1c(CC=CNC(=O)Nc2ccccc2)[nH]c(=O)c2c1ccc1nc(Nc3c(Cl)cccc3Cl)n(C)c12 | > 290
41 | Cc1cc(F)ccc1-c1nc(N[C@@H](C)CO)nc2c1ccc(=O)n2-c1ccccc1F | 114 to 120
42 | Oc1ccc(-c2nnc(-c3cccc(-c4nnc(-c5ccc(O)cc5)o4)c3)o2)cc1 | > 400
43 | COc1ccc(C(=O)NC(=O)N2CC2C#N)cc1 (stereo unspecified) | 130 to 132
44 | Cc1ccc(F)cc1C(=O)Nc1ccc(C(=O)N2Cc3ccccc3Nc3ncccc32)cn1 | 102 to 104

Further lines, results first:

Row | melting point [°C] | SMILES
45 | 94 to 96 | COc1cccc2c1CC1(CCCCC1)C2=O
46 | 193 to 194 | CSc1ncc(Cc2ccc(Cl)cc2)c(=O)[nH]1
47 | 156 to 158 | NC(=O)c1[nH]c2ccccc2c1-c1ccc(NC(=O)Nc2cccc(C(F)(F)F)c2)cc1
48 | 118 | CCN(CC)C(=O)c1nn(-c2ccc(OC(F)(F)F)cc2)c2cccc(F)c2c1=O
49 | 176 | O=C(NCc1ccc2c(c1)OCO2)c1ccc2[nH]c(=O)n(Cc3ccccc3)c(=O)c2c1
50 | 109 to 110 | C=C(CC(=O)O)c1ccc(-c2ccc(F)cc2F)cc1
51 | 213 to 214 | CNc1nc(C(=O)N(C)Cc2cc(C(F)(F)F)cc(C(F)(F)F)c2)c(-c2ccccc2)c2ccccc12
52 | 150 to 154 | O=C(N[C@H]1CN(Cc2ccccc2)[C@@H]2CCO[C@H]12)C(F)(F)F (relative stereo)
53 | 116 to 120 | Cc1ccc(S(=O)(=O)OCC2COc3ccc([N+](=O)[O-])c(CC=O)c3O2)cc1 (stereo unspecified)
54 | 130 to 131 | COCCOc1ccc(NC(=O)OCc2ccccc2)cc1C(=O)O
55 | 109 to 111 | O=C(Nc1ccc(C(F)(F)F)cc1)C(=O)N1CCC(Cc2ccc(F)cc2)CC1
56 | 36 to 38 | CCCCCCCCCCCCCCOc1ccc(CC(=O)OC)cc1
57 | 120 to 121 | Cc1c(-c2ccc(C(=O)c3ccc(-c4sc5ccccc5c4C)nc3)cn2)sc2ccccc12
58 | 145 to 147 | O=C(O)c1ccc(Cc2ccccc2)cn1
59 | 100 to 102 | CSC(NCc1ccc(N)cc1)=C(C#N)C#N
60 | 86 to 87 | COC(=O)C1C=CCN2C(=O)C(C)(CCI)C(=O)N12 (stereo unspecified)
61 | < 150 | CCCc1cc(N2CCC(NCC(O)c3nccc4ccccc34)CC2)nc2sc(C(N)=O)c(N)c12 (stereo unspecified)
62 | 300 to 305 | CC1(C)C(=O)Nc2cc3[nH]c(N)nc3cc21
63 | 141 to 142 | BrC(Br)(Br)c1nnnn1-c1ccccc1
64 | 173 to 175 | COc1cccc(NC(=NC#N)NC(NC(=O)c2ccc(Cl)cc2)C(C)(C)C)c1 (stereo unspecified)
65 | 310 | Cc1ccc(Nc2cc(C(=O)O)c(Nc3ccc(C)cc3)cc2C(=O)O)cc1
66 | 205 to 207 | COCc1nc2c(N)nc3cc(CCCNS(C)(=O)=O)ccc3c2n1CC(C)(C)O
67 | 72 to 74 | Cc1ncc(-c2ccccc2)s1
68 | 74 to 76 | FC(F)(F)c1cc(Cl)c2cc(Cl)cc(Cl)c2n1
69 | 172 to 174 | CCNC(=O)N1CCC(c2cc(F)ccc2F)(S(=O)(=O)c2ccc(Cl)cc2)CC1
70 | 190 to 191 | Cc1oc(-c2ccccc2)nc1COc1ccc(C(=O)O)cc1

Row | melting point [°C] | SMILES
71 | 181 to 183 | CC(C)(C)CC(NC(=O)c1ccc(Cl)cc1)NC(=NC#N)Nc1cccnc1 (stereo unspecified)
72 | 125 | O=c1cc(OCc2ccccc2Cl)ccn1Cc1ccccc1
73 | 210 to 211 | CC(C)OC(=O)Nc1ccc2nc(-c3ccccc3)oc2n1
74 | 90 to 92 | Cc1cccc2c1C(NCCSCc1ccc(CN(C)C)o1)=NS2(=O)=O
75 | 175 | Cc1ccc(Oc2ccc(C(=O)O)cc2)cc1
76 | 216 to 217 | COc1sc(-c2ccc(NS(=O)(=O)c3sc4ccc(F)cc4c3C)c(S(C)(=O)=O)c2)nc1C
77 | 236 to 238 | C[C@H](CN(C(=O)C1(C)C2CCC1CC2)c1ccccn1)N1CCN(c2cccc3[nH]ccc23)CC1 (stereo partly specified)
78 | > 300 | N#Cc1cn(N(CO)c2c(Cl)cc(Cl)cc2Cl)c(=O)[nH]c1=O
79 | 80 to 81 | O=C(NCCCCC1CCSS1)N1CCSCC1 (stereo unspecified)
80 | 64 to 66 | CCCCCCCCCCCCCCCCCCOc1cc(SC)cc(C(=O)O)c1
81 | 77 to 79 | COc1ccc(-c2nc(SCCOCCn3ccnc3C)[nH]c2-c2ccc(OC)cc2)cc1
82 | 122 to 124 | CN(C)C(=S)SC(C[N+](=O)[O-])c1ccc2c(c1)OCO2 (stereo unspecified)
83 | 209 to 210 | CCN(c1nc(C)cc(-c2ccccc2C(=O)O)n1)c1ccc(C(C)C)cc1Br
84 | 107 to 110 | CCOC(=O)NC(=S)Nc1cc(Br)ccn1
85 | 150 | COc1ccc(C23CC(c4ccccc4)C(=O)N2CCN3)cc1 (stereo unspecified)
86 | 169 to 172 | CCCCc1nn(-c2cc(NC(=O)CC)ccc2Cl)c(=O)n1Cc1ccc(-c2ccccc2S(=O)(=O)NC(=O)c2cc(Cl)ccc2Cl)cc1F
87 | 125 to 127 | CCOC(=O)C1CCc2ccc(OC)cc2C1 (stereo unspecified)
88 | 104 to 105 | CC(F)(F)CC(Br)c1ccccc1S(N)(=O)=O (stereo unspecified)
89 | 118 to 119 | CN(c1cccc(C(F)(F)F)c1)c1cc(Oc2cccc(C(F)(F)F)c2)ncn1
90 | 111 to 112 | CCN(CC)C(=O)c1nc2cnn(CC)c2nc1-c1ccccc1
91 | 219 | CCOC(=O)C1=C(N)NC(N)=C(C(=O)OCC)C1c1c(OC)ncnc1OC
92 | 122 to 125 | COC(=O)Cc1cc2c(cc1CC(=O)NCCc1ccc(OC)c(OC)c1)OCO2
93 | 207 | CCCc1nc(C(O)C(C)(C)C)c(C(=O)O)n1Cc1ccc(-c2ccccc2C(=O)OC(C)(C)C)cc1 (stereo unspecified)
94 | 75 to 76 | CCc1cc(Oc2ccc([C@H](O)[C@@H](Cc3cccc(OC(F)(F)C(F)F)c3)C(=O)O)cc2)ccc1Cl (racemic)
95 | 123 to 124 | CC12CCCc3cc(N(CC4CC4)c4ncc(C(=O)O)cn4)cc(c31)CCC2
96 | 335 | OC1c2ccccc2COc2ccc(-c3nnn[nH]3)cc21 (stereo unspecified)
